Measurements reported in paper PMC12298827, “Subchronic Toxicities of Four Per- and Polyfluoroalkyl Substances (PFASs) by Oral Exposure in Sprague–Dawley Rats” (Toxics, 2025).

Tested on: male and female Sprague–Dawley rats
Experiment: 90-day subchronic oral gavage toxicity study
Type: in vivo, rat
Parameters: key to NOEL, absolute liver weight increase / LOEL, absolute liver weight increase / NOEL, relative kidney weight increase / LOEL, relative kidney weight increase / NOEL, absolute kidney weight increase / LOEL, absolute kidney weight increase / NOEL, relative liver weight increase / LOEL, relative liver weight increase: NR: no response, no statistically significant dose-dependent changes
Outline: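 Ten rats per sex per group got corn-oil gavage (3 mL/kg) at five doses or vehicle for 90 days, necropsy on SD 91. Assessed weekly weights and food intake, neurobehavior (FOB, locomotor), eyes, terminal blood panels with plasma PFAS, organ weights and H&E histology; Dunnett's test against control, two-sided 0.05.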

O=C(O)C(F)(Cl)C(F)(F)F (stereo not shown) [CTFPA, 2-Chloro-2,3,3,3-tetrafluoropropanoic acid]
Bodyweight (BW) and bodyweight gain (90-day, both sexes, all doses): None CTPFA related
Clinical chemistry (90-day, both sexes, all doses): From minimal to mild increases in albumin and the A/G ratio in males at ≥7.5 mg/kg-day and in females at ≥50 mg/kg; only in males—from minimal to mild decreases in globulin at ≥7.5 mg/kg-day; from minimal to mild increases in ALPi at ≥7.5 mg/kg-day, and minimally increased BUN at 30 mg/kg-day
Clinical observations (90-day, both sexes, all doses): None
Coagulation endpoints (90-day, both sexes, all doses): From minimal to mild dose-dependent decreased APTT in males at ≥3.8 mg/kg; no effect in females
Feed consumption (90-day, both sexes, all doses): Significant non-adverse increases in males at ≥3.8 mg/kg-day; minor effects in females, not considered as CTFPA related
Functional observational battery (90-day, both sexes, all doses): No changes
Gross lesions (90-day, both sexes, all doses): None considered as CTFPA related
Hematology (90-day, both sexes, all doses): From minimal to mild decreases in red cell mass (RBC, HCT, and HGB) and increases in RDW in males at ≥7.5 mg/kg-day; no similar effect in females; from minimal to mild increased MPV in males at ≥3.8 mg/kg-day and in females at ≥50 mg/kg-day
Histopathology (90-day, both sexes, all doses): The liver of males and females; the heart and nasal turbinates of males
Locomotor activity (90-day, both sexes, all doses): No effects
Morbidity and mortality (90-day, both sexes, all doses): None
Ophthalmology (90-day, both sexes, all doses): No ocular lesions
Organ weight changes (90-day, both sexes, all doses): Mean absolute and/or relative liver weight increases in males at ≥3.8 mg/kg-day and in females at ≥25 mg/kg-day ^6; mean thymus weights increased in males at ≥15 mg/kg-day; mean kidney weights increased in females at ≥50 mg/kg-day
BMD10, absolute liver weight increase (female): 13.6 mg/kg-day
BMDL, absolute liver weight increase (female): 5.1 mg/kg-day
LOEL, absolute kidney weight increase (female): NR
LOEL, absolute liver weight increase (female): 25 mg/kg-day
LOEL, relative kidney weight increase (female): NR
LOEL, relative liver weight increase (female): 25 mg/kg-day
NOEL, absolute kidney weight increase (female): NR
NOEL, absolute liver weight increase (female): 12.5 mg/kg-day
NOEL, relative kidney weight increase (female): NR
NOEL, relative liver weight increase (female): 12.5 mg/kg-day
A/G (female, 1.9 mg/kg-day): 1.10±0.09 ratio
ALB (female, 1.9 mg/kg-day): 4.07 ± 0.31 g/dL
ALPi (female, 1.9 mg/kg-day): 49.7±22.7 U/L
BUN (female, 1.9 mg/kg-day): 16.4 ± 3.6 mg/dL
CHOL (female, 1.9 mg/kg-day): 94.7 ± 23.9 mg/dL
GLOB (female, 1.9 mg/kg-day): 3.69 ± 0.19 g/dL
GLUC (female, 1.9 mg/kg-day): 140.7 ± 21.5 mg/dL
A/G (female, 3.8 mg/kg-day): 1.17±0.10 ratio
ALB (female, 3.8 mg/kg-day): 4.41 ± 0.33 g/dL
ALPi (female, 3.8 mg/kg-day): 56.6±19.8 U/L
BUN (female, 3.8 mg/kg-day): 16.5 ± 3.0 mg/dL
CHOL (female, 3.8 mg/kg-day): 95.9 ± 14.5 mg/dL
GLOB (female, 3.8 mg/kg-day): 3.78 ± 0.20 g/dL
GLUC (female, 3.8 mg/kg-day): 133.0 ± 25.5 mg/dL
% BW Gain (female, 6.3 mg/kg-day): 59.29%
% Diff, % BW Gain (female, 6.3 mg/kg-day): 12.55%
% Diff, Total BW change (female, 6.3 mg/kg-day): 13.40%
% Diff, Total Food Consumed (female, 6.3 mg/kg-day): 8.28%
APTT (female, 6.3 mg/kg-day): 17.76 s
HCT (female, 6.3 mg/kg-day): 47.57±2.23%
HGB (female, 6.3 mg/kg-day): 15.03 ± 0.80 g/dL
Kidney Weight (female, 6.3 mg/kg-day): 1.91 g
Kidney/Body Weight (female, 6.3 mg/kg-day): 0.57%
Kidney/Brain Weight (female, 6.3 mg/kg-day): 95.5%
Liver Weight (female, 6.3 mg/kg-day): 8.76 g
Liver/Body Weight (female, 6.3 mg/kg-day): 2.59%
Liver/Brain Weight (female, 6.3 mg/kg-day): 437%
MPV (female, 6.3 mg/kg-day): 7.57 ± 0.49 fL
PT (female, 6.3 mg/kg-day): 14.58 s
Total BW change (female, 6.3 mg/kg-day): 129.35 g
Total Food Consumed (female, 6.3 mg/kg-day): 1671 g
A/G (female, 7.5 mg/kg-day): 1.18±0.14 ratio
ALB (female, 7.5 mg/kg-day): 4.36 ± 0.42 g/dL
ALPi (female, 7.5 mg/kg-day): 54.6±16.8 U/L
BUN (female, 7.5 mg/kg-day): 16.4 ± 2.4 mg/dL
CHOL (female, 7.5 mg/kg-day): 98.2 ± 26.4 mg/dL
GLOB (female, 7.5 mg/kg-day): 3.70 ± 0.28 g/dL
GLUC (female, 7.5 mg/kg-day): 143.6 ± 21.3 mg/dL
% BW Gain (female, 12.5 mg/kg-day): 56.17%
% Diff, % BW Gain (female, 12.5 mg/kg-day): 6.64%
% Diff, Total BW change (female, 12.5 mg/kg-day): 5.12%
% Diff, Total Food Consumed (female, 12.5 mg/kg-day): 1.02%
APTT (female, 12.5 mg/kg-day): 16.20 s
HCT (female, 12.5 mg/kg-day): 45.99±2.31%
HGB (female, 12.5 mg/kg-day): 14.52 ± 0.79 g/dL
Kidney Weight (female, 12.5 mg/kg-day): 1.97 g
Kidney/Body Weight (female, 12.5 mg/kg-day): 0.60%
Kidney/Brain Weight (female, 12.5 mg/kg-day): 93.7%
Liver Weight (female, 12.5 mg/kg-day): 8.97 g
Liver/Body Weight (female, 12.5 mg/kg-day): 2.71%
Liver/Brain Weight (female, 12.5 mg/kg-day): 428%
MPV (female, 12.5 mg/kg-day): 8.00 ± 0.97 fL
PT (female, 12.5 mg/kg-day): 14.17 s
Total BW change (female, 12.5 mg/kg-day): 119.91 g
Total Food Consumed (female, 12.5 mg/kg-day): 1559 g
A/G (female, 15 mg/kg-day): 1.19±0.08 ratio
ALB (female, 15 mg/kg-day): 4.46 ± 0.44 g/dL
ALPi (female, 15 mg/kg-day): 57.7±20.2 U/L
BUN (female, 15 mg/kg-day): 16.3 ± 2.3 mg/dL
CHOL (female, 15 mg/kg-day): 96.5 ± 26.2 mg/dL
GLOB (female, 15 mg/kg-day): 3.73 ± 0.20 g/dL
GLUC (female, 15 mg/kg-day): 154.6 ± 21.6 mg/dL
% BW Gain (female, 25 mg/kg-day): 53.36%
% Diff, % BW Gain (female, 25 mg/kg-day): 1.29%
% Diff, Total BW change (female, 25 mg/kg-day): 1.52%
% Diff, Total Food Consumed (female, 25 mg/kg-day): 2.96%
APTT (female, 25 mg/kg-day): 21.82 s
HCT (female, 25 mg/kg-day): 46.61±2.96%
HGB (female, 25 mg/kg-day): 14.62 ± 1.04 g/dL
Kidney Weight (female, 25 mg/kg-day): 1.97 g
Kidney/Body Weight (female, 25 mg/kg-day): 0.60%
Kidney/Brain Weight (female, 25 mg/kg-day): 95.0%
Liver Weight (female, 25 mg/kg-day): 9.97 g
Liver/Body Weight (female, 25 mg/kg-day): 3.02%
Liver/Brain Weight (female, 25 mg/kg-day): 483%
MPV (female, 25 mg/kg-day): 7.65 ± 0.50 fL
PT (female, 25 mg/kg-day): 14.34 s
Total BW change (female, 25 mg/kg-day): 115.80 g
Total Food Consumed (female, 25 mg/kg-day): 1589 g
A/G (female, 30 mg/kg-day): 1.22±0.07 ratio
ALB (female, 30 mg/kg-day): 4.62 ± 0.45 g/dL
ALPi (female, 30 mg/kg-day): 74.1±17.5 U/L
BUN (female, 30 mg/kg-day): 18.3 ± 2.5 mg/dL
CHOL (female, 30 mg/kg-day): 101.9 ± 15.8 mg/dL
GLOB (female, 30 mg/kg-day): 3.77 ± 0.25 g/dL
GLUC (female, 30 mg/kg-day): 153.4 ± 21.2 mg/dL
% BW Gain (female, 50 mg/kg-day): 51.94%
% Diff, % BW Gain (female, 50 mg/kg-day): -1.40%
% Diff, Total BW change (female, 50 mg/kg-day): -0.34%
% Diff, Total Food Consumed (female, 50 mg/kg-day): 2.22%
APTT (female, 50 mg/kg-day): 17.22 s
HCT (female, 50 mg/kg-day): 45.75±1.73%
HGB (female, 50 mg/kg-day): 14.30 ± 0.57 g/dL
Kidney Weight (female, 50 mg/kg-day): 2.07 g
Kidney/Body Weight (female, 50 mg/kg-day): 0.63%
Kidney/Brain Weight (female, 50 mg/kg-day): 102%
Liver Weight (female, 50 mg/kg-day): 10.49 g
Liver/Body Weight (female, 50 mg/kg-day): 3.21%
Liver/Brain Weight (female, 50 mg/kg-day): 520%
MPV (female, 50 mg/kg-day): 8.10 ± 0.46 fL
PT (female, 50 mg/kg-day): 14.57 s
Total BW change (female, 50 mg/kg-day): 113.68 g
Total Food Consumed (female, 50 mg/kg-day): 1577 g
% BW Gain (female, 100 mg/kg-day): 49.85%
% Diff, % BW Gain (female, 100 mg/kg-day): -5.37%
% Diff, Total BW change (female, 100 mg/kg-day): -5.90%
% Diff, Total Food Consumed (female, 100 mg/kg-day): 4.68%
APTT (female, 100 mg/kg-day): 21.23 s
HCT (female, 100 mg/kg-day): 46.76±2.13%
HGB (female, 100 mg/kg-day): 14.60 ± 0.66 g/dL
Kidney Weight (female, 100 mg/kg-day): 2.05 g
Kidney/Body Weight (female, 100 mg/kg-day): 0.65%
Kidney/Brain Weight (female, 100 mg/kg-day): 104%
